Results as given in patent US20240058422A1, “GLUCAGON-LIKE PEPTIDE-1 RECEPTOR ANTAGONISTS” (INDIANA UNIVERSITY RESEARCH AND TECHNOLOGY CORPORATION, priority 2022, published 2024).
≈ marks a conversion by molar mass, not a printed value. Where two headings read alike, the source gives them in different places. Starred links: 1 amine or outer side, 2 acyl side, 3 side chain; linkers in the order of their positions; H or OH if unused. Non-standard residues stand in square brackets, D forms with d. Residues, ends and D or L forms follow the SMILES beside them. Groups on a side chain read outwards from the residue. *: point of attachment. γGlu = O=C(O)[C@H](CCC(=O)[*:2])N[*:1]; Palmitoyl = CCCCCCCCCCCCCCCC(=O)*; AEEA = NCCOCCOCC(=O)O; Aib = CC(C)(N)C(=O)O

What was measured:
[1] = biological target: GLP-1R (Homo sapiens, UniProt P43220); experiment: GLP-1 receptor-mediated cAMP induction, luciferase reporter gene antagonism assay; type: cell-based; design: host or cells: HEK 293; settings: antagonism of 0.05 nM GLP-1, HEK 293 cells
GLP-1R, sequence (P43220 24-463): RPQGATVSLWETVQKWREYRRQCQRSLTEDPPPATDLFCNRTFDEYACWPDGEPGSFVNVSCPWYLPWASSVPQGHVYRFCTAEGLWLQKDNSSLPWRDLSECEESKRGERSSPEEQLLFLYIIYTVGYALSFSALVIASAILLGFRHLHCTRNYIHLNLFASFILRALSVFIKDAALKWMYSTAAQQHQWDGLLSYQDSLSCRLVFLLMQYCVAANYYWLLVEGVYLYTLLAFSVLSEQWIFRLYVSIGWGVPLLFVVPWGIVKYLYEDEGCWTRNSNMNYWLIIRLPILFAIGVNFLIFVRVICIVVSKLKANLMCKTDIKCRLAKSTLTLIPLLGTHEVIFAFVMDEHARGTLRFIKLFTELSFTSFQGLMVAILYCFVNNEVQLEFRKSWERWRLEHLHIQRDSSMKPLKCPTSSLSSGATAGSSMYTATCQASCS
Procedure, shortened: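 HEK 293 cells cotransfected with human GLP-1 receptor and CRE-luciferase were serum-deprived 16 h, then given serial peptide dilutions followed by 0.05 nM GLP-1 and incubated 5 h at 37° C.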

[2] = physchem
[3] = Table 4, Aib variants of 9-40am Jant4 K40[C16], read-out: Bioactivity IC50
[4] = pH 7.7, Solubility [mg/mL] 80 mM AmBicarb pH7.7
[5] = pH 7.7, Solubility [mg/mL] PBS pH7.7

Compound	IC50 ([1]; Table 3, amino acid substitution variants of Jant4-K40, read-out: Bioactivity IC50) [nM]	solubility ([2]; pH 7.7, Solubility 80 mM AmeBicarb pH7.7) [mg/mL]	IC50 [1, 3] [nM]	solubility [2, 4] [mg/mL]	solubility [2, 5] [mg/mL]	IC50 ([1]; Table 2, C16 linker variants of 9-40amide Jant4 K40[X], read-out: Biactivity IC50) [nM]
CCCCCCCCCCCCCCCC(=O)N[C@@H](CCC(=O)NCCOCCOCC(=O)NCCCC[C@H](NC(=O)[C@H](CO)NC(=O)[C@@H]1CCCN1C(=O)[C@@H]1CCCN1C(=O)[C@@H]1CCCN1C(=O)[C@H](C)NC(=O)CNC(=O)[C@H](CO)NC(=O)[C@H](CO)NC(=O)[C@@H]1CCCN1C(=O)CNC(=O)CNC(=O)C(C)(C)NC(=O)[C@H](CCCNC(=N)N)NC(=O)[C@H](CC(C)C)NC(=O)[C@H](Cc1c[nH]c2ccccc12)NC(=O)[C@H](CCC(=O)O)NC(=O)[C@@H](NC(=O)[C@H](Cc1ccccc1)NC(=O)[C@H](CCC(=O)O)NC(=O)[C@H](CCCNC(=N)N)NC(=O)[C@@H](NC(=O)[C@H](C)NC(=O)[C@H](CCC(N)=O)NC(=O)[C@H](CCC(=O)O)NC(=O)[C@H](CCC(=O)O)NC(=O)[C@H](CC(C)C)NC(=O)[C@H](Cc1ccc(O)cc1)NC(=O)[C@H](CO)NC(=O)[C@H](CO)NC(=O)[C@@H](NC(=O)[C@@H](N)CC(=O)O)C(C)C)C(C)C)[C@@H](C)CC)C(=O)O)C(=O)O [compound 80] (H-DVSSYLEEQAVREFIEWLR[Aib]GGPSSGAPPPSK([AEEA-γGlu-Palmitoyl])-OH; N-terminus assumed)	106	> 20				
CCCCCCCCCCCCCCCC(=O)NCCCC[C@H](NC(=O)[C@H](CO)NC(=O)[C@@H]1CCCN1C(=O)[C@@H]1CCCN1C(=O)[C@@H]1CCCN1C(=O)[C@H](C)NC(=O)CNC(=O)[C@H](CO)NC(=O)[C@H](CO)NC(=O)[C@@H]1CCCN1C(=O)CNC(=O)CNC(=O)[C@H](CCCCN)NC(=O)C(C)(C)NC(=O)[C@H](CC(C)C)NC(=O)[C@H](Cc1c[nH]c2ccccc12)NC(=O)[C@H](C)NC(=O)[C@@H](NC(=O)[C@H](Cc1ccccc1)NC(=O)[C@H](CCC(=O)O)NC(=O)[C@H](CCCNC(=N)N)NC(=O)[C@@H](NC(=O)[C@H](C)NC(=O)[C@H](CCC(N)=O)NC(=O)[C@H](CCC(=O)O)NC(=O)[C@H](CCC(=O)O)NC(=O)[C@H](CC(C)C)NC(=O)[C@H](Cc1ccc(O)cc1)NC(=O)[C@H](CO)NC(=O)[C@H](CO)NC(=O)[C@@H](NC(=O)[C@@H](N)CC(=O)O)C(C)C)C(C)C)[C@@H](C)CC)C(N)=O [compound 81] (H-DVSSYLEEQAVREFIAWL[Aib]KGGPSSGAPPPSK(Palmitoyl)-NH2)			23	19 (≈ 5.24 mM)	1.6 (≈ 0.441 mM)	
CCCCCCCCCCCCCCCC(=O)NCCCC[C@H](NC(=O)[C@H](CO)NC(=O)[C@@H]1CCCN1C(=O)[C@@H]1CCCN1C(=O)[C@@H]1CCCN1C(=O)[C@H](C)NC(=O)CNC(=O)[C@H](CO)NC(=O)[C@H](CO)NC(=O)[C@@H]1CCCN1C(=O)CNC(=O)CNC(=O)C(C)(C)NC(=O)[C@@H](NC(=O)[C@H](CCCCN)NC(=O)[C@H](Cc1c[nH]c2ccccc12)NC(=O)[C@H](C)NC(=O)[C@@H](NC(=O)[C@H](Cc1ccccc1)NC(=O)[C@H](CCC(=O)O)NC(=O)[C@H](CCCNC(=N)N)NC(=O)[C@@H](NC(=O)[C@H](C)NC(=O)[C@H](CCC(N)=O)NC(=O)[C@H](CCC(=O)O)NC(=O)[C@H](CCC(=O)O)NC(=O)[C@H](CC(C)C)NC(=O)[C@H](Cc1ccc(O)cc1)NC(=O)[C@H](CO)NC(=O)[C@H](CO)NC(=O)[C@@H](NC(=O)[C@@H](N)CC(=O)O)C(C)C)C(C)C)[C@@H](C)CC)C(C)C)C(N)=O [compound 82] (H-DVSSYLEEQAVREFIAWKV[Aib]GGPSSGAPPPSK(Palmitoyl)-NH2)			6	14.2 (≈ 3.93 mM)	0.1 (≈ 0.0277 mM)	
H-DVSSYLEEQAVREFIAWLVKGGPSSGAPPPSK-NH2 [compound 95]				12.7		281
